One test concerns KB-V1. As to the kind of experiment: MTT cytotoxicity/reversal assay (Example 2). As to conditions: alone. The format is cell-based, human. An outline of the steps: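 Cells in DMEM with 10% bovine serum were preincubated ±reversal agent for 1 h, then exposed to graded chemotherapeutic drug concentrations for 68 h. MTT was added for 4 h, formazan dissolved in DMSO and A570 read. KB-V1 (ABCB1) was kept in 1 μg/mL vinblastine; HEK ABCG2-482-G2 cells were selected with 2 mg/mL G418.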

For another test, the system named is KB-3-1 cells. Nature of the test: [^3H]-paclitaxel accumulation (Example 1). To be noted: 10 μM. The class given is cell-based, human. The protocol:
The cells were washed three times with ice-cold PBS, then suspended in fresh medium with or without reversal agents at 37° C. […] Each sample was placed in scintillation fluid and the radioactivity was measured in a Packard TRI-CARB1 1900CA liquid scintillation analyzer from Packard Instrument Company, Inc. (Downers Grove, Ill.).

For `CC(=O)O[C@H]1C(=O)[C@@]2(C)[C@H]([C@H](OC(=O)c3ccccc3)[C@]3(O)C[C@H](OC(=O)[C@H](O)[C@@H](NC(=O)c4ccccc4)c4ccccc4)C(C)=C1C3(C)C)[C@]1(OC(C)=O)CO[C@@H]1C[C@@H]2O` [Paclitaxel, paclitaxel], the “fold-resistance, paclitaxel” value in the test with KB-V1 was “(1079.6)”.
`CCCc1nc(C)c2c(=O)[nH]c(-c3cc(S(=O)(=O)N4CCN(CC)CC4)ccc3OCC)nn12` [Vardenafil, vardenafil]: the “effect on paclitaxel accumulation” value in the test on KB-3-1 cells is on record as “without altering the levels”.

The values above are taken from US8673914B2, “Use of phosphodiesterase inhibitors for treating multidrug resistance” (St. John's University, priority 2011, dated 2014).
